Series [1] has as its system human B-cell lymphoma OCI-LY10 cell subcutaneous xenograft tumor. Kind of series: Human B-cell lymphoma OCI-LY10 cell subcutaneous xenograft tumor mouse model. In kind it is in vivo. The protocol:
The objective of the experiment was to study the efficacy of WX001 as the test drug on human B-cell lymphoma OCI-LY10 cell subcutaneous xenograft tumor in CB17 SCID mouse model.
OCI-LY10 human B-cell lymphoma cells were cultured in a 37° C., 5% CO2 incubator.
OCI-LY10 tumor cells were cultured and passaged, and 0.2 mL (1×10^7 cells) OCI-LY10 cells were subcutaneously inoculated on the right back of each […] (with Matrigel, volume ratio 1:1), and the group administration was started when the average tumor volume reached 167 mm^3. The health status and death of animals were monitored every day, and routine examinations included observing the effects of tumor growth and drug treatment on daily behaviors of animals, such as behavioral activities, food intake and water intake, weight change (weight was measured twice a week), tumor size (tumor volume was measured twice a week), appearance signs or other abnormal conditions.
The experimental index was to investigate whether the tumor growth was inhibited, delayed or cured. Including the measurement of tumor volume (TV), and the calculation of the compound's anti-tumor efficacy using TGI (%) or the relative tumor proliferation rate T/C (%).
TV=0.5a×b^2, a and b represented the long diameter and short diameter of the tumor, respectively.
T/C %=TRTV/CRTV×100% (TRTV: RTV in treatment group; CRTV: RTV in negative control group). Relative tumor volume (RTV) was calculated according to the results of tumor measurement, and the calculation formula was RTV=Vt/V0, wherein V0 was the average tumor volume measured at the time of group administration (i.e., d0), Vt was the average tumor volume at a certain measurement, and TRTV and CRTV were the data taken at the same day.

Another series deals with T1, human BTK (Homo sapiens, UniProt Q06187).
T1 construct: purchased Reaction Biology Corp
Kind of series: In vitro BTK kinase activity, 33P isotope-labeled kinase activity assay (Reaction Biology Corp). In kind it is biochemical. The settings on record: 33P-ATP, 2 hours at room temperature.

The test system of series [2] is OCI-LY10 human B-cell lymphoma cells. In words: OCI-LY10 cell proliferation inhibition (CellTiter-Glo). It is filed as cell-based. The settings on record: OCI-Ly10, 72 h, treated for 3 days. As for the experimental part: OCI-LY10 human B-cell lymphoma cells were cultured in a 37° C., 5% CO2 incubator. The composition of medium was IMDM (GIBCO, Cat #12440053); the supplementary compositions were 20% FBS (Hyclone, Cat #SH30084.03); 1% PenStrep (Thermo, Cat #SV30010).
The tumor cell lines OCI-LY10 and TMD8 were used to detect the effect of the compound on inhibiting tumor cell proliferation in vitro. The tumor cell line was cultured in a 37° C., 5% CO2 incubator according to the culture conditions shown, and passaged regularly, then the cells in the logarithmic growth phase were taken, counted, and spread in a 96-well plate (the cells in each well were adjusted to an appropriate concentration, a total of […] per well was added). After incubating overnight in a 37° C., 5% CO2 incubator, drugs with different concentration gradients (10 μL of drug solution was added) were added and treated for 3 days, then 50 μL of CellTiter-Glo working solution was added to each well, and the cell plate was wrapped with aluminum foil to avoid light. The culture plate was shaken on an orbital shaker for 2 minutes to induce cell lysis, and placed at room temperature for 10 minutes to stabilize the luminescence signal, then the luminescence signal was detected on the 2104 EnVision plate reader.
The Inhibition rate (IR) of the tested compound was calculated using the following formula: IR (%)=(1−(RLU compound−RLU blank control)/(RLU solvent control−RLU blank control))*100%.
The inhibition rates of different concentrations of the compounds were calculated in Excel, and then the inhibition curves were made by GraphPad Prism software and the related parameters were calculated, including the minimum inhibition rate, the maximum inhibition rate and IC50.

Series [3] deals with TNF-α production in THP-1 cells. In words: THP-1 cytological TNFa ELISA assay (LPS-stimulated). In kind it is cell-based. Conditions: Homo sapiens, TNF-α in culture supernatant, 150 ng/mL LPS, 18 hours. As for the experimental part: THP-1 human acute […] leukemia cells were purchased from ATCC (Cat #TIB-202) and cultured at 37° C. in 5% CO2 incubator. The composition of medium was RPMI1640 (Gibco, Cat #22400-105), and the supplementary compositions were 10% FBS (Gibco, Cat #10091148); 1% PenStrep (Gibco, Cat #15140); 0.05 mM 2-Mercaptoethanol (Sigma, Cat #M6250).
TNF-α Elisa kit was used to detect the content of TNF-α in cell culture supernatant samples. TNF-α was produced by stimulating THP-1 cells with 150 ng/mL LPS (Sigma, Cat #L6529).
THP-1 cells cultured normally at logarithmic growth stage were seeded in a 96-well plate (Corning #3599) at a certain concentration (1*10^5/100 μL) and then put into a cell incubator for incubation. After two hours, 16.7 μL of different concentrations of the compound to be tested (8*final concentration) were added and incubated in an incubator. After one hour, 16.7 μL of 1200 ng/mL LPS was added and incubated in an incubator. After 18 hours, the culture supernatant samples were collected by centrifugation, and the content of TNF-α could be detected by TNF-α Elisa kit. Finally, OD signals (OD450-OD570) were read on envision board reader.
The OD450-OD570 signal value was converted into a percentage inhibition rate. Inhibition rate %=(ZPE−sample)/(ZPE−HPE)*100.
“HPE” refers to the OD450-OD570 signal value of the control well without LPS stimulated cells, and “ZPE” refers to the OD450-OD570 signal value of the control well with LPS stimulated cells. The IC50 value of the compound was calculated by XLFit in the excel add-in. Y=Bottom+(Top−Bottom)/(1+(IC50/X)^HillSlope). Equation: […]

The mark [4] stands for this setting: 50 mpk, 18 days after the start of administration, p<0.001.

Molecules are shown by their SMILES.

T1 sequence (Q06187 whole entry): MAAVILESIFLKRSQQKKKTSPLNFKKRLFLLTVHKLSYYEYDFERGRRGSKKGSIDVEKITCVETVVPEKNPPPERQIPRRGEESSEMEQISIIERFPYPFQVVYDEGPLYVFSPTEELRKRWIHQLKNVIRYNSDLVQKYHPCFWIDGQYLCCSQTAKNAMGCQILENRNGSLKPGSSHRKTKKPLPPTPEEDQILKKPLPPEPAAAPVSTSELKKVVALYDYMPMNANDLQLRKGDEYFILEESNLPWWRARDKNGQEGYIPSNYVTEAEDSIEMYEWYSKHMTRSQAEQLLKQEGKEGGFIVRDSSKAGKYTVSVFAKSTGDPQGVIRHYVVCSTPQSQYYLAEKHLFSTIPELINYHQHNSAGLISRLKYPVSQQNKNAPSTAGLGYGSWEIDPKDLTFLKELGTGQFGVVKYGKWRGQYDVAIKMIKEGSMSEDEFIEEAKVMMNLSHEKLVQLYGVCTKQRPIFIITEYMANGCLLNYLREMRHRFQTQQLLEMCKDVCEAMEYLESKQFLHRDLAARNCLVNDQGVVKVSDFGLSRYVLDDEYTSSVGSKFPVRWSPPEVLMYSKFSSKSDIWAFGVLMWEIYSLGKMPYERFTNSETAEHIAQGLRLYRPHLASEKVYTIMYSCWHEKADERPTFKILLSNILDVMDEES

For the molecule `Cc1cc(-c2nc(C(=O)Nc3cn4cc(CCC(C)(C)O)nc4cc3N3CCCCC3)co2)ccn1` [WX001], the “anti-tumor effect compared with the solvent control group” value in series [1] (50 mpk, 18 days) is “significant anti-tumor effect”. In series [1] (setting [4]), this molecule gave a T/C value of 22%. In addition, the TGI value in series [1] (setting [4]) is 109%. The “drug tolerance (body weight, abnormality)” value in series [1] (OCI-LY10 xenograft mice, 18 days of administration) is listed as “well tolerated”. The IC50 against human BTK was 6.7 nM; in series [2], 128 nM; in series [3], 124 nM.

For the origin of these results see patent publication US12459940B2, “Oxazole compound as multi-targeted inhibitor of IRAK4 and BTK” (SHANGHAI FOSUN PHARMACEUTICAL INDUSTRIAL DEVELOPMENT CO., …, priority 2019, dated 2025).
